Patent US12528761B2, “Thyromimetics” (Autobahn Therapeutics, Inc., priority 2020, dated 2026)

Molecular target: T1, recombinant human FAAH (rhFAAH) (Homo sapiens, UniProt O00519)
T1 construct: purchased Cayman Chemical (Ann Arbor, MI, USA)
T1 sequence (O00519 1-579): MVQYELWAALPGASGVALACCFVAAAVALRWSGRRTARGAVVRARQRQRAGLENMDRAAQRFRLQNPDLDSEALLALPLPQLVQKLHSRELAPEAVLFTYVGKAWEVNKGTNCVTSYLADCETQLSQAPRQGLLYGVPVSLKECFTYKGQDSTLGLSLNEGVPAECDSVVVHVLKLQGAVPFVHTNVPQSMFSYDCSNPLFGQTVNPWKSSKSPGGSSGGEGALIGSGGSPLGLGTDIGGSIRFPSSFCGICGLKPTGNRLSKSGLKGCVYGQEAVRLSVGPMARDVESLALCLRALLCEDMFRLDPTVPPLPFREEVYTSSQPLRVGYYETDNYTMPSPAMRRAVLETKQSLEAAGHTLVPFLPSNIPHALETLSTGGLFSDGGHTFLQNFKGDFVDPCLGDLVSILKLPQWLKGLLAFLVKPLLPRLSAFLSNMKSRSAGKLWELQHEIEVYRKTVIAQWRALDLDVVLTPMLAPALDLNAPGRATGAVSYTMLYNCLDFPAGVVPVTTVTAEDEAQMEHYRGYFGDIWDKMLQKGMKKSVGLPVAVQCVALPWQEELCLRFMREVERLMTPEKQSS
Assay: FAAH substrate evaluation (formation of acid metabolite, LC-MS/MS)
Format: biochemical
Set-up: key: A: ke is equal to or less than 1.0; B: ke is greater than 1.0 and less than or equal to 2.5; C: ke is greater than 2.5; NC: no conversion
Conditions: 0.5 ng/μL rhFAAH, 1 μM test compound, pH 8.0, room temperature, 0-60 minutes
Procedure: Purified recombinant human FAAH (rhFAAH) was purchased from Cayman Chemical (Ann Arbor, MI, USA). The total volume for each incubation was 400 μL containing a final 0.5 ng/μL rhFAAH, 1 μM test compound, 1.25% ethanol or 1 μM PF-3845 (FAAH inhibitor), and 0.1% bovine serum albumin in Tris-EDTA buffer at pH 8.0). The positive control was LL-341001. The incubation was conducted at the room temperature. At 0, 5, 15, 30 and 60 minutes, an aliquot of 30 μL reaction mixtures was removed and mixed with 300 μL acetonitrile containing 5 ng/mL terfenadine and 10 ng/mL tolbutamide as internal standards to quench the reaction. The resulting mixture was centrifuged at 4000 rpm, 4° C. for 15 minutes, and 100 μL supernatant was ready for LC-MS/MS analysis to measure the formation of acid metabolite.
Acquity Ultra Performance LC system from Waters was used for sample analysis. The chromatography was performed on a reverse phase Kinetex 2.6 μm C18 column, 2.1×30 mm, 100 Å. The mobile phase A comprised of 0.1% formic acid in water and mobile phase B comprised of 0.1% formic acid in acetonitrile with a 2-min run time at the flow rate of 0.8 mL/min for the acid metabolite from positive control or a 1.5 min run time at the flow rate of 0.9 mL/min for the acid metabolite of test compounds. The mass spectrometer (API-5500 and API Q Trap 4000 Applied Biosystems/MDS SCIEX Instruments, Framingham, MA, USA) was operated under ESI positive or negative ion MRM mode.
The formation of acid metabolite was monitored and quantified using one calibration point of 1 μM. The observed rate constant (ke) for the acid metabolite formation was calculated by plotting the metabolite concentration versus time of incubation with the slope being ke and is shown in Table 4.

CC(C)c1cc(Cc2c(Cl)cc(SCC(=O)N3CCCC3)cc2Cl)ccc1O [Compound 182, 2-((3,5-dichloro-4-(4-hydroxy-3-isopropylbenzyl)phenyl)thio)-1-(pyrrolidin-1-yl)ethan-1-one]
ke, observed rate constant for the acid metabolite formation: A (ke is equal to or less than 1.0)

CC(C)c1cc(Cc2c(Cl)cc(SCC(=O)Nc3cccnn3)cc2Cl)ccc1O [Compound 174, 2-((3,5-dichloro-4-(4-hydroxy-3-isopropylbenzyl)phenyl)thio)-N-(pyridazin-3-yl)acetamide]
ke, observed rate constant for the acid metabolite formation: C (ke is greater than 2.5)

CNC(=O)CNc1cc(Cl)c(Cc2ccc(O)c(C(C)C)c2F)c(C)c1F [Compound 136, 2-((5-chloro-2-fluoro-4-(2-fluoro-4-hydroxy-3-isopropylbenzyl)-3-methylphenyl)amino)-N-methylacetamide]
ke, observed rate constant for the acid metabolite formation: A (ke is equal to or less than 1.0)

CC(C)c1cc(Cc2c(Cl)cc(SCC(=O)NCc3ccccc3)cc2Cl)ccc1O [Compound 184, N-benzyl-2-((3,5-dichloro-4-(4-hydroxy-3-isopropylbenzyl)phenyl)thio)acetamide]
ke, observed rate constant for the acid metabolite formation: A (ke is equal to or less than 1.0)

CNC(=O)CSc1cc(C)c(Cc2ccc(O)c(C(C)C)c2)c(Cl)c1F [Compound 218, 2-((3-chloro-2-fluoro-4-(4-hydroxy-3-isopropylbenzyl)-5-methylphenyl)thio)-N-methylacetamide]
ke, observed rate constant for the acid metabolite formation: B (ke is greater than 1.0 and less than or equal to 2.5)

CNC(=O)/C(C)=C/c1cc(C)c(Cc2ccc(O)c(C(C)C)c2F)c(Cl)c1 [Compound 238, (E)-3-(3-chloro-4-(2-fluoro-4-hydroxy-3-isopropylbenzyl)-5-methylphenyl)-N,2-dimethylacrylamide]
ke, observed rate constant for the acid metabolite formation: B (ke is greater than 1.0 and less than or equal to 2.5)

CNC(=O)CCc1cc(Cl)c(Cc2ccc(O)c(C(C)C)c2)c(Cl)c1 [Compound 12, 3-(3,5-dichloro-4-(4-hydroxy-3-isopropylbenzyl)phenyl)-N-methylpropanamide]
ke, observed rate constant for the acid metabolite formation: A (ke is equal to or less than 1.0)

CC(C)c1c(O)ccc(Cc2c(Cl)cc(NCC(=O)N(C)C)c(F)c2Cl)c1F [Compound 166, 2-((3,5-dichloro-2-fluoro-4-(2-fluoro-4-hydroxy-3-isopropylbenzyl)phenyl)amino)-N,N-dimethylacetamide]
ke, observed rate constant for the acid metabolite formation: NC

CC(C)c1c(O)ccc(Cc2c(Cl)cc(NCC(=O)Nc3ccnnc3)c(F)c2Cl)c1F [Compound 162, 2-((3,5-dichloro-2-fluoro-4-(2-fluoro-4-hydroxy-3-isopropylbenzyl)phenyl)amino)-N-(pyridazin-4-yl)acetamide]
ke, observed rate constant for the acid metabolite formation: C (ke is greater than 2.5)

COc1ccc(NC(=O)CNc2cc(Cl)c(Cc3ccc(O)c(C(C)C)c3F)c(Cl)c2F)cn1 [Compound 158, 2-((3,5-dichloro-2-fluoro-4-(2-fluoro-4-hydroxy-3-isopropylbenzyl)phenyl)amino)-N-(6-methoxypyridin-3-yl)acetamide]
ke, observed rate constant for the acid metabolite formation: B (ke is greater than 1.0 and less than or equal to 2.5)

CC(C)c1c(O)ccc(Cc2c(Cl)cc(CC(=O)N(C)C)cc2Cl)c1F [Compound 34, 2-(3,5-dichloro-4-(2-fluoro-4-hydroxy-3-isopropylbenzyl)phenyl)-N,N-dimethylacetamide]
ke, observed rate constant for the acid metabolite formation: NC

CNC(=O)CNCc1cc(Cl)c(Cc2ccc(O)c(C(C)C)c2)c(Cl)c1 [Compound 111, 2-((3,5-dichloro-4-(4-hydroxy-3-isopropylbenzyl)benzyl)amino)-N-methylacetamide]
ke, observed rate constant for the acid metabolite formation: A (ke is equal to or less than 1.0)

CC(C)c1c(O)ccc(Cc2c(Cl)cc(NCC(=O)Nc3cccnn3)c(F)c2Cl)c1F [Compound 157, 2-((3,5-dichloro-2-fluoro-4-(2-fluoro-4-hydroxy-3-isopropylbenzyl)phenyl)amino)-N-(pyridazin-3-yl)acetamide]
ke, observed rate constant for the acid metabolite formation: B (ke is greater than 1.0 and less than or equal to 2.5)

CNC(=O)CNc1cc(C)c(Cc2ccc(O)c(C(C)C)c2)c(Cl)c1F [Compound 135, 2-((3-chloro-2-fluoro-4-(4-hydroxy-3-isopropylbenzyl)-5-methylphenyl)amino)-N-methylacetamide]
ke, observed rate constant for the acid metabolite formation: A (ke is equal to or less than 1.0)

CNC(=O)CNc1cc(Cl)c(Cc2ccc(O)c(C(C)C)c2)c(Cl)c1F [Compound 76, 2-((3,5-dichloro-2-fluoro-4-(4-hydroxy-3-isopropylbenzyl)phenyl)amino)-N-methylacetamide]
ke, observed rate constant for the acid metabolite formation: A (ke is equal to or less than 1.0)

CNC(=O)CNc1cc(C)c(Cc2ccc(O)c(C(C)C)c2)c(Cl)c1 [Compound 240, 2-((3-chloro-4-(4-hydroxy-3-isopropylbenzyl)-5-methylphenyl)amino)-N-methylacetamide]
ke, observed rate constant for the acid metabolite formation: NC

CNC(=O)CSc1cc(Cl)c(Cc2ccc(O)c(C(C)C)c2)c(Cl)c1 [Compound 195, 2-((3,5-dichloro-4-(4-hydroxy-3-isopropylbenzyl)phenyl)thio)-N-methylacetamide]
ke, observed rate constant for the acid metabolite formation: B (ke is greater than 1.0 and less than or equal to 2.5)

CC(C)c1c(O)ccc(Cc2c(Cl)cc(NCC(=O)N[C@@H]3C[C@@H]3F)c(F)c2Cl)c1F [Compound 156, 2-((3,5-dichloro-2-fluoro-4-(2-fluoro-4-hydroxy-3-isopropylbenzyl)phenyl)amino)-N-((1R,2S)-2-fluorocyclopropyl)acetamide]
ke, observed rate constant for the acid metabolite formation: A (ke is equal to or less than 1.0)

CNC(=O)CSCc1cc(Cl)c(Cc2ccc(O)c(C(C)C)c2F)c(Cl)c1 [Compound 147, 2-((3,5-dichloro-4-(2-fluoro-4-hydroxy-3-isopropylbenzyl)benzyl)thio)-N-methylacetamide]
ke, observed rate constant for the acid metabolite formation: C (ke is greater than 2.5)

CON(C)C(=O)/C(C)=C/c1cc(Cl)c(Cc2ccc(O)c(C(C)C)c2F)c(Cl)c1 [Compound 122, (E)-3-(3,5-dichloro-4-(2-fluoro-4-hydroxy-3-isopropylbenzyl)phenyl)-N-methoxy-N,2-dimethylacrylamide]
ke, observed rate constant for the acid metabolite formation: A (ke is equal to or less than 1.0)

CNC(=O)CSc1cc(C)c(Cc2ccc(O)c(C(C)C)c2F)c(Cl)c1 [Compound 233, 2-((3-chloro-4-(2-fluoro-4-hydroxy-3-isopropylbenzyl)-5-methylphenyl)thio)-N-methylacetamide]
ke, observed rate constant for the acid metabolite formation: C (ke is greater than 2.5)

CNC(=O)CCc1cc(Cl)c(Cc2ccc(O)c(C(C)C)c2F)c(Cl)c1 [Compound 41, 3-(3,5-dichloro-4-(2-fluoro-4-hydroxy-3-isopropylbenzyl)phenyl)-N-methylpropanamide]
ke, observed rate constant for the acid metabolite formation: A (ke is equal to or less than 1.0)

CNC(=O)CCc1cc(C)c(Cc2ccc(O)c(C(C)C)c2F)c(Cl)c1 [Compound 236, 3-(3-chloro-4-(2-fluoro-4-hydroxy-3-isopropylbenzyl)-5-methylphenyl)-N-methylpropanamide]
ke, observed rate constant for the acid metabolite formation: B (ke is greater than 1.0 and less than or equal to 2.5)

CNC(=O)CSc1cc(Cl)c(Cc2ccc(O)c(C(C)C)c2F)c(Cl)c1 [Compound 188, 2-((3,5-dichloro-4-(2-fluoro-4-hydroxy-3-isopropylbenzyl)phenyl)thio)-N-methylacetamide]
ke, observed rate constant for the acid metabolite formation: B (ke is greater than 1.0 and less than or equal to 2.5)
